Experimental data reported in patent US4134792A, “Specific binding assay with an enzyme modulator as a labeling substance” (Miles Laboratories, Inc., priority 1976, dated 1979).
Like-named read-outs stand apart in the source and are kept apart here.

Experiments:
[1] = test system: nicotinamide adenine dinucleotide (NAD)-isocitric dehydrogenase; set-up: key: inhibitory or negative effectors are indicated by (-); stimulatory or positive effectors are indicated by (+); details: N. crassa; cited from earlier work
deoxythymidine kinase = test system: deoxythymidine kinase; set-up: key: inhibitory or negative effectors are indicated by (-); stimulatory or positive effectors are indicated by (+); details: E. coli; cited from earlier work
[2] = test system: deoxycytidylate aminohydrolase; set-up: key: inhibitory or negative effectors are indicated by (-); stimulatory or positive effectors are indicated by (+); details: ass spleen; cited from earlier work
glutamate dehydrogenase = test system: glutamate dehydrogenase; set-up: key: inhibitory or negative effectors are indicated by (-); stimulatory or positive effectors are indicated by (+); details: beef liver; cited from earlier work
[3] = test system: biosynthetic L-threonine deaminase; set-up: key: inhibitory or negative effectors are indicated by (-); stimulatory or positive effectors are indicated by (+); details: E. coli K12 and yeast; cited from earlier work
homoserine dehydrogenase [4] = test system: homoserine dehydrogenase; set-up: key: inhibitory or negative effectors are indicated by (-); stimulatory or positive effectors are indicated by (+); details: R. rubrum; cited from earlier work
carbonic anhydrase [5] = test: Competitive binding assay for dinitrophenyl (DNP) derivatives; carbonic anhydrase esterase readout (Example 5); format: biochemical, human; details: for effect on the carbonic anhydrase reaction (in words): Table 4; for effect of antibody to DNP on inhibition (in words): presence of antibody to DNP
Method: (§1) Further dilutions were with water.
as §1
(4) Antibody to Dinitrophenyl (DNP) Reagent - Antisera raised against DNP was chromatographed at 4° C. on a 5 × 70 cm column of Sephadex G-200 (Pharmacia AB, Uppsala, Sweden) with 0.1 M Tris-HCl buffer, pH 8.2, containing 1 M sodium chloride.

homoserine dehydrogenase [6] = test system: homoserine dehydrogenase; set-up: key: inhibitory or negative effectors are indicated by (-); stimulatory or positive effectors are indicated by (+); details: E. coli; cited from earlier work
threonine aspartokinase = test system: threonine aspartokinase; set-up: key: inhibitory or negative effectors are indicated by (-); stimulatory or positive effectors are indicated by (+); details: E. coli; cited from earlier work
acetylcholinesterase = details: cited from earlier work; for inhibition of acetylcholinesterase (in words): effective analogs of listed inhibitors
uricase = details: approximation; competitive inhibitor; read-out: inhibitor constant (Ki); cited from earlier work
[7] = test system: L-glutamine-D-fructose-6-phosphate transaminase; set-up: key: inhibitory or negative effectors are indicated by (-); stimulatory or positive effectors are indicated by (+); details: rat liver; cited from earlier work
phosphorylase b = test system: phosphorylase b; set-up: key: inhibitory or negative effectors are indicated by (-); stimulatory or positive effectors are indicated by (+); details: rabbit muscle; cited from earlier work
[8] = test system: fructose-1,6-diphosphatase; set-up: key: inhibitory or negative effectors are indicated by (-); stimulatory or positive effectors are indicated by (+); details: frog muscle and rat liver; cited from earlier work
[9] = test system: NAD-isocitric dehydrogenase; set-up: key: inhibitory or negative effectors are indicated by (-); stimulatory or positive effectors are indicated by (+); details: yeast; cited from earlier work
carbonic anhydrase [10] = test: Esterase activities of carbonic anhydrase as a function of acetazolamide concentration (Example 2); format: biochemical, human; details: for Hydrolysis Rate: pH 7.4, enzyme 0.013 IU
carbonic anhydrase [11] = test: Direct binding assay for avidin; competitive binding assay for biotin; carbonic anhydrase esterase readout (Example 4); format: biochemical, human
Text: as §1
The results of reaction mixtures 2 through 9 are presented in graphical form in FIG. 2 of the drawing.

L-threonine deaminase = test system: L-threonine deaminase; set-up: key: inhibitory or negative effectors are indicated by (-); stimulatory or positive effectors are indicated by (+); details: C. tetanomorphum; cited from earlier work
acetolactate synthetase = test system: acetolactate synthetase; set-up: key: inhibitory or negative effectors are indicated by (-); stimulatory or positive effectors are indicated by (+); details: E. coli; cited from earlier work
[12] = test system: UDP-N-acetyl-glucosamine-2-epimerase; set-up: key: inhibitory or negative effectors are indicated by (-); stimulatory or positive effectors are indicated by (+); details: rat liver; cited from earlier work
[13] = test system: aspartate transcarbamylase; set-up: key: inhibitory or negative effectors are indicated by (-); stimulatory or positive effectors are indicated by (+); details: E. coli; cited from earlier work
lysine aspartokinase = test system: lysine aspartokinase; set-up: key: inhibitory or negative effectors are indicated by (-); stimulatory or positive effectors are indicated by (+); details: E. coli; cited from earlier work
phosphofructokinase = details: guinea pig heart; cited from earlier work

Molecule: O=C(O)CC(O)(CC(=O)O)C(=O)O [citrate]
- allosteric effector: inhibitory (-) or stimulatory (+) [1]: +

Molecule: Cc1cn([C@H]2C[C@H](O)[C@@H](COP(=O)(O)OP(=O)(O)OP(=O)(O)O)O2)c(=O)[nH]c1=O [dTTP, deoxythymidine triphosphate]
- allosteric effector: inhibitory (-) or stimulatory (+) (deoxythymidine kinase): -
- allosteric effector: inhibitory (-) or stimulatory (+) [2]: -

Molecule: N[C@@H](Cc1cc(I)c(Oc2cc(I)c(O)c(I)c2)c(I)c1)C(=O)O [thyroxine]
- allosteric effector: inhibitory (-) or stimulatory (+) (glutamate dehydrogenase): -

Molecule: CC[C@H](C)[C@H](N)C(=O)O [L-isoleucine]
- allosteric effector: inhibitory (-) or stimulatory (+) [3]: -
- allosteric effector: inhibitory (-) or stimulatory (+) (homoserine dehydrogenase [4]): +

Molecule: O=C(O)CCCCCNc1ccc([N+](=O)[O-])cc1[N+](=O)[O-] [N-DNP-6-aminocaproate]
- Rate of Hydrolysis (carbonic anhydrase [5]; N-DNP-6-aminocaproate 1.8 μM alone, no antibody, mixture 6): 0.154 Increase in Absorbance per min at 348 nm
- effect on the carbonic anhydrase reaction (in words) (carbonic anhydrase [5]): no substantial effect on the carbonic anhydrase reaction
- effect of DNP derivative on inhibition by DNP-modulator conjugate (in words) (carbonic anhydrase [5]; mixtures 2 and 7, antibody to DNP present): increased inhibition of the carbonic anhydrase reaction by the DNP-modulator conjugate

Molecule: NS(=O)(=O)c1nnc(NC(=O)CCCCCNc2ccc([N+](=O)[O-])cc2[N+](=O)[O-])s1 [DNP-Modulator Conjugate, 6-(2,4-Dinitroanilino)-N-(5-sulfonamide-1,3,4-thiadiazo-2-yl) caproamide]
- Rate of Hydrolysis (carbonic anhydrase [5]; DNP-modulator conjugate 0.278 μM with antibody to DNP 100 .infin.l/ml, mixture 2): 0.108 Increase in Absorbance per min at 348 nm
- Rate of Hydrolysis (carbonic anhydrase [5]; DNP-modulator conjugate 0.278 μM, N-DNP-6-aminocaproate 1.8 μM, antibody to DNP 100 .infin.l/ml, mixture 7): 0.098 Increase in Absorbance per min at 348 nm
- Rate of Hydrolysis (carbonic anhydrase [5]; DNP-modulator conjugate 0.278 μM, no antibody, mixture 4): 0.074 Increase in Absorbance per min at 348 nm
- effect on the carbonic anhydrase reaction (in words) (carbonic anhydrase [5]): inhibited the carbonic anhydrase reaction
- effect of antibody to DNP on inhibition (in words) (carbonic anhydrase [5]): degree of inhibition being decreased by the presence of antibody to DNP

Molecule: C[C@@H](O)[C@H](N)C(=O)O [L-threonine]
- allosteric effector: inhibitory (-) or stimulatory (+) (homoserine dehydrogenase [6]): -
- allosteric effector: inhibitory (-) or stimulatory (+) (threonine aspartokinase): -
- allosteric effector: inhibitory (-) or stimulatory (+) (homoserine dehydrogenase [4]): -

Molecule: C[N+](C)(C)c1ccccc1 [phenyl trimethylammonium ion]
- Ki (acetylcholinesterase; approximation, competitive inhibitor, read-out: inhibitor constant (Ki)): ~1000 nM

Molecule: Clc1nc(Cl)c2[nH]c(Cl)nc2n1 [2,6,8-trichloropurine, 2,6,8-Trichloropurine]
- Ki (uricase): ~1000 nM

Molecule: CC(C)C[C@H](N)C(=O)O [leucine]
- allosteric effector: inhibitory (-) or stimulatory (+) (glutamate dehydrogenase): +

Molecule: CC(=O)N[C@H]1[C@@H](OP(=O)(O)OP(=O)(O)OC[C@H]2O[C@@H](n3ccc(=O)[nH]c3=O)[C@H](O)[C@@H]2O)O[C@H](CO)[C@@H](O)[C@@H]1O [uridine diphosphate (UDP)-N-acetyl-glucosamine]
- allosteric effector: inhibitory (-) or stimulatory (+) [7]: -

Molecule: CN(C(=O)Oc1cccc([N+](C)(C)C)c1)c1ccc(N)cc1 [N-methyl-N-(p-aminophenyl) carbamate ester of m-(trimethylamino) phenol]
- inhibition of acetylcholinesterase (in words) (acetylcholinesterase): inhibited

Molecule: C[N+](C)(C)c1ccc(N)cc1 [p-aminophenyl trimethylammonium ion]
- inhibition of acetylcholinesterase (in words) (acetylcholinesterase): inhibited

Molecule: Nc1ncnc2c1ncn2[C@@H]1O[C@H](COP(=O)(O)O)[C@@H](O)[C@H]1O [5'-AMP]
- allosteric effector: inhibitory (-) or stimulatory (+) (phosphorylase b): +
- allosteric effector: inhibitory (-) or stimulatory (+) [8]: -
- allosteric effector: inhibitory (-) or stimulatory (+) [9]: +

Molecule: CC(=O)Nc1nnc(S(N)(=O)=O)s1 [Acetazolamide, 2-Acetylamino-1,3,4-thiadiazole-5-sulfonamide]
- effect on the carbonic anhydrase reaction (in words) (carbonic anhydrase [5]): inhibited the carbonic anhydrase reaction
- Rate of Hydrolysis (carbonic anhydrase [5]; acetazolamide 0.216 μM with antibody to DNP 100 .infin.l/ml, mixture 3): 0.091 Increase in Absorbance per min at 348 nm
- Rate of Hydrolysis (carbonic anhydrase [5]; acetazolamide 0.216 μM, no antibody, mixture 5): 0.088 Increase in Absorbance per min at 348 nm
- effect of antibody to DNP on inhibition (in words) (carbonic anhydrase [5]): substantially unaffected by the presence of antibody to DNP
- inhibition of carbonic anhydrase (in words) (carbonic anhydrase [10]; Table 1): inhibited the enzyme carbonic anhydrase
- Hydrolysis Rate (carbonic anhydrase [10]; acetazolamide 0.144 μM with avidin 0.105 units/ml): 0.089 ΔOD348 /min/ml
- Hydrolysis Rate (carbonic anhydrase [10]; acetazolamide 0.144 μM, no avidin): 0.088 ΔOD348 /min/ml
- Hydrolysis Rate (carbonic anhydrase [10]; acetazolamide 0.288 μM, no avidin): 0.047 ΔOD348 /min/ml

Molecule: Avidin: Lyophilized avidin (Sigma Chemical Co., St. Louis, Mo.)
- relation of rate of enzymatic hydrolysis to avidin (in words) (carbonic anhydrase [11]; constant level of biotin-modulator conjugate, mixtures 2-9): directly related to the amount of avidin present
- effect of avidin on inhibition by acetazolamide (in words) (carbonic anhydrase [10]; Table 1): no significant effect on such inhibition
- Hydrolysis Rate (carbonic anhydrase [10]; avidin 0.105 units/ml, acetazolamide 0.000 μM): 0.106 ΔOD348 /min/ml

Molecule: Nc1ncnc2c1ncn2[C@@H]1O[C@H](COP(=O)(O)OP(=O)(O)O)[C@@H](O)[C@H]1O [ADP, addenosine diphosphate]
- allosteric effector: inhibitory (-) or stimulatory (+) (L-threonine deaminase): +
- allosteric effector: inhibitory (-) or stimulatory (+) (glutamate dehydrogenase): +

Molecule: CC(C)[C@H](N)C(=O)O [L-valine]
- allosteric effector: inhibitory (-) or stimulatory (+) (acetolactate synthetase): +
- allosteric effector: inhibitory (-) or stimulatory (+) [3]: +

Molecule: CC(=O)N[C@H]1[C@H]([C@H](O)[C@H](O)CO)OC(OP(=O)(O)OC[C@H]2O[C@@H](n3ccc(N)nc3=O)[C@H](O)[C@@H]2O)(C(=O)O)C[C@@H]1O (stereo partly shown) [cytosine monophosphate (CMP)-N-acetyl-neuraminic acid]
- allosteric effector: inhibitory (-) or stimulatory (+) [12]: -

Molecule: Nc1ccn([C@H]2C[C@H](O)[C@@H](COP(=O)(O)OP(=O)(O)OP(=O)(O)O)O2)c(=O)n1 [dCTP, deoxycytosine triphosphate]
- allosteric effector: inhibitory (-) or stimulatory (+) [2]: +

Molecule: Nc1nc2c(ncn2[C@@H]2O[C@H](COP(=O)(O)OP(=O)(O)OP(=O)(O)O)[C@@H](O)[C@H]2O)c(=O)[nH]1 [GTP, guanosine triphosphate]
- allosteric effector: inhibitory (-) or stimulatory (+) (glutamate dehydrogenase): -

Molecule: NC(=O)C1=CN([C@@H]2O[C@H](COP(=O)(O)OP(=O)(O)OC[C@H]3O[C@@H](n4cnc5c(N)ncnc54)[C@H](O)[C@@H]3O)[C@@H](O)[C@H]2O)C=CC1 [reduced NAD]
- allosteric effector: inhibitory (-) or stimulatory (+) (glutamate dehydrogenase): -

Molecule: O=C(O)CCCC[C@@H]1SC[C@@H]2NC(=O)N[C@@H]21 [biotin]
- relation of rate of hydrolysis to biotin (in words) (carbonic anhydrase [11]; mixtures 8, 10 and 11): inversely related to the amount present

Molecule: CSCC[C@H](N)C(=O)O [methionine]
- allosteric effector: inhibitory (-) or stimulatory (+) (glutamate dehydrogenase): +

Molecule: Nc1ccn([C@H]2C[C@H](O)[C@@H](COP(=O)(O)OP(=O)(O)O)O2)c(=O)n1 [dCDP, deoxycytosine diphosphate]
- allosteric effector: inhibitory (-) or stimulatory (+) (deoxythymidine kinase): +

Molecule: Nc1ccn([C@@H]2O[C@H](COP(=O)(O)OP(=O)(O)OP(=O)(O)O)[C@@H](O)[C@H]2O)c(=O)n1 [CTP, cytosine triphosphate]
- allosteric effector: inhibitory (-) or stimulatory (+) [13]: -

Molecule: CSCC[C@H](N)C(=O)O [L-methionine]
- allosteric effector: inhibitory (-) or stimulatory (+) (homoserine dehydrogenase [4]): +

Molecule: NCCCC[C@H](N)C(=O)O [L-lysine]
- allosteric effector: inhibitory (-) or stimulatory (+) (lysine aspartokinase): -

Molecule: Nc1ncnc2c1ncn2[C@@H]1O[C@H](COP(=O)(O)OP(=O)(O)OP(=O)(O)O)[C@@H](O)[C@H]1O [ATP, adenosine triphosphate]
- allosteric effector: inhibitory (-) or stimulatory (+) (phosphorylase b): -
- allosteric effector: inhibitory (-) or stimulatory (+) (phosphofructokinase): -
- allosteric effector: inhibitory (-) or stimulatory (+) [13]: +
- allosteric effector: inhibitory (-) or stimulatory (+) (glutamate dehydrogenase): -
